Source: US7423068B2, “Control of parasitic mites of honey bees” (The United States of America as represented by the …, priority 2001, dated 2008)
Where two headings read alike, the source gives them in different places.

How the values were obtained:
[1] = tested on: free-running adult mites
Method: 2-Heptanone was tested for miticidal activity in two separate sets of bioassays. In the petri dish bioassays we exposed free-running adult mites to volatiles from 2-heptanone either in pure form or in an acrylic block dispenser (as described in a further experiment, below) and measured mortality over time. Mites were placed in petri dishes (5-10 mites/dish, 4 dishes per treatment and 4 dishes for controls) that were lined on the bottom with damp tissue paper covered with Parafilm®. Holes were punched in the Parafilm® using an insect pin to create a humid environment in the petri dish. A piece of filter paper the same size as the petri dish was placed on top of the Parafilm® sheet. In the first petri dish bioassay, 40 μl of pure 2-heptanone was placed on a piece of filter paper on the lid of the petri dish (treatment dishes). The Control dishes were set up as described above but nothing was added to the piece of filter paper fastened to the lid of the petri dish. The petri dishes were placed in separate incubators for treatments and Controls. Incubator temperatures were maintained at 33-34.4° C. […] In the second bioassay 0.1 g of a 30% concentration of 2-heptanone in acrylic block made as in Example 6 was placed in a plastic weighing boat in the center of petri dishes prepared as described above. Control petri dishes were prepared identically to those containing the acrylic block, but the weighing boat in the center of the dish was empty.
In another series of tests, 2-heptanone, 98+% (Sigrma-Aldrich); 3-heptanone (Fluka Chemika); 4-heptanone (Fluka Chemika); 2-hexanone; 2-octanone, 98% (Aldrich Chemical Co.); 1-heptanol (Fluka Chemika, 99.5% GC), and heptaldehyde, 95% (Aldrich Chemical Co.) were tested in petri dish bioassays wherein free-running adult mites were exposed to 40 μl of pure compound placed on filter paper as described above. The test conditions and Controls were as described above.
The test conditions and Controls were as described above.

[2] = cited from earlier work
[3] = 40 μl pure compound on filter paper, exposure time 1 hr, S.E. ± 0 unless noted
[4] = 40 μl pure compound on filter paper, exposure time 2 hrs, S.E. ± 0 unless noted

Structure (SMILES) | % Mortality Treatment ([1]; in vivo) | Average % Mortality ± S.E. Treatment [1, 3] | Average % Mortality ± S.E. Treatment [1, 4] | further results
CCCCCCC(C)=O [2-Octanone] | 100% | – | – | –
CC(C)=O [Acetone] | – | 48 ± 8.65% | 81.2 ± 12.0% | solubility in water ([2]; in words): miscible with water
CCCC(C)=O [2-Pentanone] | – | – | – | solubility in water ([2]; in words): almost insoluble in water
CCCC(=O)OCC [Ethyl Butyrate, Ethyl butyrate] | – | – | – | solubility in water [2]: about 150 parts water; Average % Mortality ± S.E. Treatment ([1]; in vivo): 81.2 ± 12.0%
CCCCC(C)=O [2-Hexanone] | – | – | – | % Mortality Treatment ([1]; 40 μl pure compound on filter paper, exposure time 1 hr): 100%
CCCC(=O)CCC [4-Heptanone] | 100% | – | – | –
O=Cc1ccccc1 [Benzaldehyde] | – | 55 ± 12.6% | 100% | solubility in water [2]: about 350 parts water
CCCCC(=O)CC [3-Heptanone] | 100% | – | – | –
C=C(C)C1CC=C(C)CC1 (single isomer, unassigned; (+)) [d-Limonene, (+)-4-isopropenyl-1-methyl-1-cyclohexene] | – | 5.0 ± 5.0% | 55.0 ± 9.57% | –
CCC(C)=O [2-Butanone] | – | 87.5 ± 7.22% | 77.3 ± 15.6% | –
CCCCCCC=O [Heptaldehyde] | 100% | – | – | –
